Laboratory results from ChEMBL document CHEMBL1909046, “DrugMatrix in vitro pharmacology data”.

Key:
[1] = molecular target: Protein kinase C alpha type (Homo sapiens, UniProt P17252); assay type: cell-based; settings: sf9;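 also: inhibition of PKCalpha kinase activity measured in an enzyme assay with histone as the phosphorylation substrate; in other assays of this panel Not Active means under 50% inhibition at 10 µM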
Cytochrome P450 2E1 = Cytochrome P450 2E1 (Homo sapiens, UniProt P05181); settings: bti-tn-5b1-4; also: in other assays of this panel Not Active means under 50% inhibition at 10 µM
[2] = DRUGMATRIX: Calcium Channel Type L, Phenylalkylamine radioligand binding (ligand: [3H] (-)-Desmethoxyverapamil (D-888)); assay type: cell membranes, Rattus norvegicus, Wistar, Brain, Membrane; settings: Not Active = under 50% inhibition at 10 µM
[3] = DRUGMATRIX: Tumor Necrosis Factor (TNF), Non-Selective radioligand binding (ligand: [125I] TNF-alpha); assay type: cell membranes, Membrane; settings: u-937; Not Active = under 50% inhibition at 10 µM
[4] = molecular target: T1, 5-hydroxytryptamine receptor 1A (Rattus norvegicus, UniProt P19327); assay type: cell membranes, CHO-K1, Membrane; settings: cho-k1; also: in other assays of this panel Not Active means under 50% inhibition at 10 µM
T1 sequence (P19327 whole entry): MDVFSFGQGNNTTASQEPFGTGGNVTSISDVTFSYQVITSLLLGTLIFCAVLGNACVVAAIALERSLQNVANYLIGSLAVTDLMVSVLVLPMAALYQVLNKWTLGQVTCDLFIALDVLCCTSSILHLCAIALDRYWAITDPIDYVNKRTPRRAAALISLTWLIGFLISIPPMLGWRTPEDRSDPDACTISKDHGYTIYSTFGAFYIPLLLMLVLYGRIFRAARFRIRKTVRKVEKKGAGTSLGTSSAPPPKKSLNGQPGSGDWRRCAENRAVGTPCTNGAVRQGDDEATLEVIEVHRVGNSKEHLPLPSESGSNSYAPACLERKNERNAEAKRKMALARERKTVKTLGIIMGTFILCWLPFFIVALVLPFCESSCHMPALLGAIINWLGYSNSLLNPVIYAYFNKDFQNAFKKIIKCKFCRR

[5] = molecular target: 5-hydroxytryptamine receptor 4 (Cavia porcellus, UniProt O70528); assay type: cell membranes, Dunkin-Hartley, Striatum, Membrane; also: in other assays of this panel Not Active means under 50% inhibition at 10 µM
[6] = molecular target: T2, Amine oxidase [flavin-containing] A (Homo sapiens, UniProt P21397); experiment: DRUGMATRIX: Monoamine Oxidase MAO-A enzyme inhibition (substrate: Kynuramine); design: species or system BTI-TN-5B1-4; settings: bti-tn-5b1-4; Not Active = under 50% inhibition at 10 µM
T2 sequence (P21397 whole entry): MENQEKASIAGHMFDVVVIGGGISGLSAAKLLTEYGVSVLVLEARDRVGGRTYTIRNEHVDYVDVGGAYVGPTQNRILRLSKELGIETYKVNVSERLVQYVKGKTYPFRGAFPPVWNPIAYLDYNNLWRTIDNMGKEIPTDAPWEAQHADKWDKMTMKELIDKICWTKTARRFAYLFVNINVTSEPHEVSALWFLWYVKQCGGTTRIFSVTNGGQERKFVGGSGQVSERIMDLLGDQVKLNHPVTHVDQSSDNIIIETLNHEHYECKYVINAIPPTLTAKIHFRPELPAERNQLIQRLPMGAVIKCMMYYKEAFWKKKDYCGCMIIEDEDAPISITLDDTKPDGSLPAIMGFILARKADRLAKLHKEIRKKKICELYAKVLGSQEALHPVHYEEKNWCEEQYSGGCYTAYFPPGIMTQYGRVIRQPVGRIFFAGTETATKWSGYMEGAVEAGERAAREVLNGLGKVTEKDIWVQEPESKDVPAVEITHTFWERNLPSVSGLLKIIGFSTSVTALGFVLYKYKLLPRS

Sequence of Cytochrome P450 2E1 (P05181 whole entry): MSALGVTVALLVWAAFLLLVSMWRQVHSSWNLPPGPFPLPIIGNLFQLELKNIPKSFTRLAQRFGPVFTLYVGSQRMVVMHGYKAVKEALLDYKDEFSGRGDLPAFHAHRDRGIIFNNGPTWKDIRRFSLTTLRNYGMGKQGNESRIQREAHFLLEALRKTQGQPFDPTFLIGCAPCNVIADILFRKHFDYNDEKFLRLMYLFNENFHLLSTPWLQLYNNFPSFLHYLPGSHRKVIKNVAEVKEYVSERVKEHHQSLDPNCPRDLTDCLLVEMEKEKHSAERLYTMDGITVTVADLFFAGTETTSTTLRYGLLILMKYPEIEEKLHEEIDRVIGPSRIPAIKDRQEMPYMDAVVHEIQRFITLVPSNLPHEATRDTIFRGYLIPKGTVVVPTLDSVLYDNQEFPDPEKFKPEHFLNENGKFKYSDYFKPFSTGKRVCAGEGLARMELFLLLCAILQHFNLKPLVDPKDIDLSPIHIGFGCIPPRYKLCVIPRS
Sequence of 5-hydroxytryptamine receptor 4 (O70528 whole entry): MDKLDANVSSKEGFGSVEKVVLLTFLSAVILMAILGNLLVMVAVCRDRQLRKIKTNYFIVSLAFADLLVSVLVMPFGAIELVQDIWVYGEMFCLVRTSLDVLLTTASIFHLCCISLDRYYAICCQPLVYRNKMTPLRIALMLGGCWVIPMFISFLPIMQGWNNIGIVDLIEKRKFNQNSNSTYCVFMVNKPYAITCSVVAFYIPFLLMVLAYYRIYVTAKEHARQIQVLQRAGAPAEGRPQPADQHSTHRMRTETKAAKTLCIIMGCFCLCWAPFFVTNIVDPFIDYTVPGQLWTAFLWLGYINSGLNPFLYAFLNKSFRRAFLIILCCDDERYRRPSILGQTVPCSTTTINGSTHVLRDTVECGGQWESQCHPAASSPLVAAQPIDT

SMILES	IC50 [1]	IC50 (Cytochrome P450 2E1)	Ki (Cytochrome P450 2E1)	IC50 [2]	Ki [2]	IC50 [3]	Ki [3]	IC50 [4]	IC50 [5]	IC50 [6]	Ki [1]	Ki [4]	Ki [5]	Ki [6]	IC50 ([2]; read-out: IC50) [nM]	Ki ([2]; read-out: Ki) [nM]
CC(C)CN(C[C@@H](O)[C@H](Cc1ccccc1)NC(=O)O[C@H]1CCOC1)S(=O)(=O)c1ccc(N)cc1	Not Active	Not Active	Not Active	Not Active	Not Active	Not Active	Not Active	Not Active	Not Active	Not Active	–	–	–	–	–	–
c1ccc(Nc2ccc(Nc3ccccc3)cc2)cc1	Not Active	Not Active	Not Active	Not Active	Not Active	Not Active	Not Active	Not Active	Not Active	Not Active	–	–	–	–	–	–
COc1cc2c3cc1Oc1cc(ccc1O)C[C@@H]1c4c(cc(OC)c(O)c4Oc4ccc(cc4)C[C@@H]3N(C)CC2)CC[N+]1(C)C.[Cl-]	Not Active	Not Active	Not Active	Not Active	Not Active	Not Active	Not Active	Not Active	Not Active	Not Active	–	–	–	–	–	–
NC(=O)N1c2ccccc2CCc2ccccc21	Not Active	Not Active	Not Active	Not Active	Not Active	Not Active	Not Active	Not Active	Not Active	Not Active	–	–	–	–	–	–
O=C1CC[C@@H](N2C(=O)c3ccccc3C2=O)C(=O)N1	Not Active	Not Active	Not Active	Not Active	Not Active	Not Active	Not Active	Not Active	Not Active	Not Active	–	–	–	–	–	–
Cc1onc(O)c1CC(N)C(=O)O (racemic) [(R,S)-AMPA]	Not Active	Not Active	Not Active	Not Active	Not Active	Not Active	Not Active	Not Active	Not Active	Not Active	–	–	–	–	–	–
Cc1ccc2cc3c(ccc4ccccc43)c3c2c1CC3 [3-METHYLCHOLANTHRENE]	Not Active	Not Active	Not Active	Not Active	Not Active	Not Active	Not Active	Not Active	Not Active	Not Active	–	–	–	–	–	–
CC[C@@]1(O)C[C@H](O[C@H]2C[C@H](N(C)C)[C@H](O[C@H]3C[C@H](O)[C@H](O[C@H]4CCC(=O)[C@H](C)O4)[C@H](C)O3)[C@H](C)O2)c2c(cc3c(c2O)C(=O)c2c(O)cccc2C3=O)[C@H]1C(=O)OC [ACLARUBICIN]	Not Active	Not Active	Not Active	Not Active	Not Active	Not Active	Not Active	Not Active	Not Active	Not Active	–	–	–	–	–	–
Nc1nc2c(ncn2COCCO)c(=O)[nH]1 [ACYCLOVIR]	Not Active	Not Active	Not Active	Not Active	Not Active	Not Active	Not Active	Not Active	Not Active	Not Active	–	–	–	–	–	–
Cc1c(C)c2c(c(C)c1O)CC[C@@](C)(CCC[C@H](C)CCC[C@H](C)CCCC(C)C)O2 [ALPHA-TOCOPHEROL]	Not Active	Not Active	Not Active	Not Active	Not Active	Not Active	Not Active	Not Active	Not Active	Not Active	–	–	–	–	–	–
CN(C)c1nc(N(C)C)nc(N(C)C)n1 [ALTRETAMINE]	Not Active	–	–	Not Active	Not Active	Not Active	Not Active	Not Active	Not Active	Not Active	–	–	–	–	–	–
Nc1c(Br)cc(Br)cc1CN[C@H]1CC[C@H](O)CC1 [AMBROXOL]	Not Active	–	–	Not Active	Not Active	Not Active	Not Active	Not Active	Not Active	Not Active	–	–	–	–	–	–
NCCCCCC(=O)O [AMINOCAPROIC ACID]	Not Active	Not Active	Not Active	Not Active	Not Active	Not Active	Not Active	Not Active	Not Active	Not Active	–	–	–	–	–	–
CCC1(c2ccc(N)cc2)CCC(=O)NC1=O (stereo not drawn) [AMINOGLUTETHIMIDE]	Not Active	Not Active	Not Active	Not Active	Not Active	Not Active	Not Active	Not Active	Not Active	Not Active	–	–	–	–	–	–
Cc1ccc(/N=C/N(C)/C=N/c2ccc(C)cc2C)c(C)c1 [AMITRAZ]	Not Active	Not Active	Not Active	Not Active	Not Active	Not Active	Not Active	Not Active	Not Active	Not Active	–	–	–	–	–	–
CCOC(=O)C1=C(COCCN)NC(C)=C(C(=O)OC)C1c1ccccc1Cl (stereo not drawn) [AMLODIPINE]	Not Active	Not Active	Not Active	Not Active	Not Active	Not Active	Not Active	Not Active	Not Active	Not Active	–	–	–	–	–	–
COc1ccc(C[C@H]2NC[C@H](O)[C@H]2OC(C)=O)cc1 [ANISOMYCIN]	Not Active	Not Active	Not Active	Not Active	Not Active	Not Active	Not Active	Not Active	Not Active	Not Active	Not Active	Not Active	Not Active	Not Active	–	–
Nc1ncn([C@@H]2O[C@H](CO)[C@@H](O)[C@H]2O)c(=O)n1 [AZACITIDINE]	Not Active	Not Active	Not Active	Not Active	Not Active	Not Active	Not Active	Not Active	Not Active	Not Active	–	–	–	–	–	–
CN(C)C(=O)Oc1cc(OC(=O)N(C)C)cc(C(O)CNC(C)(C)C)c1 (stereo not drawn) [BAMBUTEROL]	Not Active	Not Active	Not Active	Not Active	Not Active	Not Active	Not Active	Not Active	Not Active	Not Active	–	–	–	–	–	–
c1ccc2c(c1)c1cccc3ccc4cccc2c4c31 [BENZO[E]PYRENE]	Not Active	Not Active	Not Active	Not Active	Not Active	Not Active	Not Active	Not Active	Not Active	Not Active	–	–	–	–	–	–
C[C@]12CC[C@@H]3c4ccc(O)cc4CC[C@H]3[C@@H]1CCC2=O [ESTRONE]	Not Active	–	–	Not Active	Not Active	Not Active	Not Active	Not Active	Not Active	Not Active	–	–	–	–	–	–
N=C(N)NCCN1CCCCCCC1 [GUANETHIDINE]	Not Active	–	–	Not Active	Not Active	Not Active	Not Active	Not Active	Not Active	Not Active	–	–	–	–	–	–
CC1(C)S[C@@H]2[C@H](NC(=O)Cc3ccccc3)C(=O)N2[C@H]1C(=O)O [PENICILLIN G]	Not Active	–	–	Not Active	Not Active	Not Active	Not Active	Not Active	Not Active	Not Active	–	–	–	–	–	–
CCCN1C[C@H](CSC)C[C@@H]2c3cccc4[nH]cc(c34)C[C@H]21 [PERGOLIDE]	Not Active	Not Active	Not Active	–	–	Not Active	Not Active	–	Not Active	Not Active	–	–	–	–	913	887
